Where two headings read alike, the source gives them in different places.
Experiments:
HeLa cells = experiment: cells; assay type: cell-based
HCT116 = experiment: cells; assay type: cell-based; conditions: Homo sapiens
INS-1E cells = experiment: cells; assay type: cell-based, rat
hp70S6K1 (RPS6KB1) = target: T1, hp70S6K1 (RPS6KB1) (Homo sapiens, UniProt P23443); experiment: Cerep LANCE kinase assay hp70S6K1 (S1 assay 31); assay type: biochemical; conditions: for IC50: read-out: p70S6K1
T1 construct: purchased Cerep (LANCE kinase assay platform, contract assay)
T1 sequence (P23443 whole entry): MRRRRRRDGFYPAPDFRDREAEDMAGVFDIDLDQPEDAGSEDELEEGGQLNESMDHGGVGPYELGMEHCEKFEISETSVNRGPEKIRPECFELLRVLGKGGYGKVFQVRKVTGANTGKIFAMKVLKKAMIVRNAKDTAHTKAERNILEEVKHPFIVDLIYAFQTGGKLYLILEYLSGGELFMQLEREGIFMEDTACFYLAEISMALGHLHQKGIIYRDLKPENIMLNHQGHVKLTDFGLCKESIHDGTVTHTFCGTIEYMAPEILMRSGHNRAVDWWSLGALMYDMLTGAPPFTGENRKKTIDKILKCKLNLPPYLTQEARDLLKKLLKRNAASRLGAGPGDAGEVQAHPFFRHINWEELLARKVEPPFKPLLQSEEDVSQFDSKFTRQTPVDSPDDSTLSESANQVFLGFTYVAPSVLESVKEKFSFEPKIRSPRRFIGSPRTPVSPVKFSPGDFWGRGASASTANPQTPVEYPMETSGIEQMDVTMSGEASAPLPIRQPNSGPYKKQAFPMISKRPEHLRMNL

NCI-H716 cells = experiment: cells; assay type: cell-based, Human
[1] = test system: endothelial tube formation in co-cultures of ECFCs and ADSCs treated with VEGF; experiment: cells; assay type: cell-based, human
hFLT3 = target: T2, hFLT3 (Homo sapiens, UniProt P36888); experiment: Cerep LANCE kinase assay hFLT3 (S1 assay 35); assay type: biochemical; conditions: for IC50: read-out: FLT3
T2 construct: purchased Cerep (LANCE kinase assay platform, contract assay)
T2 sequence (P36888 27-993): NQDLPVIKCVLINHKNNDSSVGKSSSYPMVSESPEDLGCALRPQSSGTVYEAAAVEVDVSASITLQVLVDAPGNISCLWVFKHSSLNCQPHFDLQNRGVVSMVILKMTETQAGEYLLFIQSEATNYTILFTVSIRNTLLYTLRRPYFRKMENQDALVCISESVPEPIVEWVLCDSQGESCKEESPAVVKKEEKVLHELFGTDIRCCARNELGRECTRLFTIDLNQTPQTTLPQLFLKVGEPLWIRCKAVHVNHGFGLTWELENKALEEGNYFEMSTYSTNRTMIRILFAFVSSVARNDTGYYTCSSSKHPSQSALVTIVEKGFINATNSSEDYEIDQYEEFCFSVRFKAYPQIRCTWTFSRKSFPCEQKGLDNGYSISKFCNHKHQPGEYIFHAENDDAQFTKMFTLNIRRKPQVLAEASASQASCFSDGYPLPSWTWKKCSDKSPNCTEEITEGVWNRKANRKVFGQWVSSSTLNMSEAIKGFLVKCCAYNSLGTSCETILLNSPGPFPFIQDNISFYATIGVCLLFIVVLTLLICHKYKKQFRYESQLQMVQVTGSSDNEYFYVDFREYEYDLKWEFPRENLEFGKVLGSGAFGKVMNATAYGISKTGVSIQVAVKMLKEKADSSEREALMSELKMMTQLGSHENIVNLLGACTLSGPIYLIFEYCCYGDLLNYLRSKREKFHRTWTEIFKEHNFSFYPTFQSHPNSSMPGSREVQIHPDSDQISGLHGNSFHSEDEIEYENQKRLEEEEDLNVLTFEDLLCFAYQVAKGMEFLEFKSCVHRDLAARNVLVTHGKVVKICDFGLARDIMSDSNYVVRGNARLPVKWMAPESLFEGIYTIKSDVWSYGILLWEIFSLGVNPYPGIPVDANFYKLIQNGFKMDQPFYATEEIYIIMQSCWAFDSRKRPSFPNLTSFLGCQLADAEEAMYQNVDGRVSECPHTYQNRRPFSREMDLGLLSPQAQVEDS

DLD-1 = experiment: cells; assay type: cell-based; conditions: Homo sapiens
hGSK3b = target: T3, hGSK3b (Homo sapiens, UniProt P49841); experiment: Cerep LANCE kinase assay hGSK3b (S1 assay 34); assay type: biochemical; conditions: for IC50: read-out: GSK3b
T3 construct: purchased Cerep (LANCE kinase assay platform, contract assay)
T3 sequence (P49841 whole entry): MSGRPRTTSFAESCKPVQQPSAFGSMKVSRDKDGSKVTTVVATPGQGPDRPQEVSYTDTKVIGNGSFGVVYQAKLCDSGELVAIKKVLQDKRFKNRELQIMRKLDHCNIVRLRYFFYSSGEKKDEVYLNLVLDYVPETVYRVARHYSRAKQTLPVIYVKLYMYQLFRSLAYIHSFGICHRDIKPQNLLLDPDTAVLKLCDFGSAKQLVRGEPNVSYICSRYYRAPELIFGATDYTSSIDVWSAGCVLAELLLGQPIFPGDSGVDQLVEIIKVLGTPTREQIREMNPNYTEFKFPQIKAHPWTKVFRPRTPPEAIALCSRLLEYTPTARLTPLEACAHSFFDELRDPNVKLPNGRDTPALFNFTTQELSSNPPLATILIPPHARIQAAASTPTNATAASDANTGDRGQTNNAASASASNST

SW480 = experiment: cells; assay type: cell-based; conditions: Homo sapiens
hKDR = target: T4, hKDR (Homo sapiens, UniProt P35968); experiment: Cerep LANCE kinase assay hKDR (S1 assay 32); assay type: biochemical; conditions: for IC50: read-out: KDR
T4 construct: purchased Cerep (LANCE kinase assay platform, contract assay)
T4 sequence (P35968 20-1356): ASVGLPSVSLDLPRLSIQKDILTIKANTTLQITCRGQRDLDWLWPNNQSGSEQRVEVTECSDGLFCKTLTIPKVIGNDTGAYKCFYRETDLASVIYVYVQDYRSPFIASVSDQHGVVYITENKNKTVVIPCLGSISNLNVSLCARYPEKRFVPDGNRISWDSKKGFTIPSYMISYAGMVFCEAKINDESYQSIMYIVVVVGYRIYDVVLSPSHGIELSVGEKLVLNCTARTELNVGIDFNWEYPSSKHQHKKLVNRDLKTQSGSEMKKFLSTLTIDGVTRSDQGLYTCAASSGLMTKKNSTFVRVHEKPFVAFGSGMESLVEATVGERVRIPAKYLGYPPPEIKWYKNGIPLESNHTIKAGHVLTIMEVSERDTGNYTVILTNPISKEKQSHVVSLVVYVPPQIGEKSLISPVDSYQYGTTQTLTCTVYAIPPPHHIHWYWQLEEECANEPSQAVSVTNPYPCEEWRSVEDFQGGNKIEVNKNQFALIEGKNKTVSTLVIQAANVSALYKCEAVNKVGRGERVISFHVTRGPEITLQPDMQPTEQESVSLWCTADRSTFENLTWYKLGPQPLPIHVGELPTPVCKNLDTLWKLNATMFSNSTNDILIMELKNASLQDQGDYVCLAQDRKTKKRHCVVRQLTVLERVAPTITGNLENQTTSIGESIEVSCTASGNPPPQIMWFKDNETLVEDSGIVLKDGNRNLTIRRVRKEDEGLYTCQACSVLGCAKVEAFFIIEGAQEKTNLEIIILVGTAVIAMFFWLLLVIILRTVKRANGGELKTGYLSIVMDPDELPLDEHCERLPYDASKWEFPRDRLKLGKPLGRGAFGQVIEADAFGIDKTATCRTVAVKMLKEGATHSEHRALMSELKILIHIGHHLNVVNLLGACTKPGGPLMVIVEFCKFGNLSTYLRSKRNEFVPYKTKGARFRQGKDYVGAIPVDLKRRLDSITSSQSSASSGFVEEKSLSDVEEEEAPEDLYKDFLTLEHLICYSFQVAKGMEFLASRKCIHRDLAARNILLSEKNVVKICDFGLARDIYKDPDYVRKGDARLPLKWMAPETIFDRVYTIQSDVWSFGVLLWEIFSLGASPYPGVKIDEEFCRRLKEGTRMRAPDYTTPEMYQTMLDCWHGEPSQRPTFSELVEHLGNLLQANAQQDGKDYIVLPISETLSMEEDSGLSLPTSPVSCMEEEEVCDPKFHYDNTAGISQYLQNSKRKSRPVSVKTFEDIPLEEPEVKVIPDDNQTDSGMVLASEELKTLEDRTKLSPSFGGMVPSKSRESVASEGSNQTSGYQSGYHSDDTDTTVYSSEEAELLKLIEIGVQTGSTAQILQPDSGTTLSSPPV

hJAK2 = target: T5, hJAK2 (Homo sapiens, UniProt O60674); experiment: Cerep LANCE kinase assay hJAK2 (S1 assay 33); assay type: biochemical; conditions: for IC50: read-out: JAK2
T5 construct: purchased Cerep (LANCE kinase assay platform, contract assay)
T5 sequence (O60674 whole entry): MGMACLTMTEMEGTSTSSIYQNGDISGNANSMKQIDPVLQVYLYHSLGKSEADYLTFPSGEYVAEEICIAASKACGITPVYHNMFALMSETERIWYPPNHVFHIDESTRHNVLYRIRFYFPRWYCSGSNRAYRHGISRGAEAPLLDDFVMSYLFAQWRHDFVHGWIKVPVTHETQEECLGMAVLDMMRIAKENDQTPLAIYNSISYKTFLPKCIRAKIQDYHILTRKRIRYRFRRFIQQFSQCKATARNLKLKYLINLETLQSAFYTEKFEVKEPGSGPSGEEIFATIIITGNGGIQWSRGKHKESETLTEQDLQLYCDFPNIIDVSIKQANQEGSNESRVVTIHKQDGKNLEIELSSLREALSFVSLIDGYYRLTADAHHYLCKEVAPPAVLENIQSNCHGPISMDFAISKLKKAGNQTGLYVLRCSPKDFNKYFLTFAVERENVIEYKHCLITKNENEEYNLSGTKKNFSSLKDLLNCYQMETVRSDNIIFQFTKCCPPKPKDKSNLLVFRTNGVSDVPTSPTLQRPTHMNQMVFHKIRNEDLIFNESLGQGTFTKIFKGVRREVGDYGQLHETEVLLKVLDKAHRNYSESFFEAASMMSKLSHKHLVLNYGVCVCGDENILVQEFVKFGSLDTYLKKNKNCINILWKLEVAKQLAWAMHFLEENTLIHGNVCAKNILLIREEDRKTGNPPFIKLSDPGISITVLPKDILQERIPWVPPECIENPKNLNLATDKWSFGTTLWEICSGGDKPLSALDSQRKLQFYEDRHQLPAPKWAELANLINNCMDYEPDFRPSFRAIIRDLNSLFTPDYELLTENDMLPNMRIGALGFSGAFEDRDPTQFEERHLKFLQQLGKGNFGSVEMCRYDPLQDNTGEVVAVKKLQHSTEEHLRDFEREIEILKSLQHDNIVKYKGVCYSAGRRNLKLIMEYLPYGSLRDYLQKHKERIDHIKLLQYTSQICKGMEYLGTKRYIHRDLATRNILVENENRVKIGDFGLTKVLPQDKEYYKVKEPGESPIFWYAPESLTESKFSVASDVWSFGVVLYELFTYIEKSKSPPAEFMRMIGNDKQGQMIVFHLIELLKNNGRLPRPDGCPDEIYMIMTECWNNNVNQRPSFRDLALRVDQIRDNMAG

[2] = test system: HCT116 cells treated with a GSK3β inhibitor; experiment: cells; assay type: cell-based; conditions: Homo sapiens
[3] = test system: nuclear β-catenin in C2C12 cells; experiment: cells; assay type: cell-based
[4] = HCT-116, basal, HCT116, read-out: Basal_Viability ATP HCT116
[5] = Rattus norvegicus, INS-1E; read-out: Insulin Secretion
[6] = Homo sapiens, NCI-H716; read-out: GLP 1 Secretion
[7] = Homo sapiens; read-out: Anti-Angiogenesis
[8] = HCT-116, HCT116 pretreated with GSK3b inhibitor, read-out: GSK3b inh pretreated_Viability ATP HCT116
[9] = Mus musculus, C2C12; read-out: Wnt Pathway
[10] = HCT-116, read-out: GSK3b inh pretreated_Viability ATP HCT116
[11] = Homo sapiens, HeLa, read-out: CellCycle G2/M
[12] = HCT-116, read-out: Basal_Viability ATP HCT116
[13] = Rattus norvegicus, INS-1E, read-out: Insulin Secretion
[14] = Homo sapiens, NCI-H716, read-out: GLP 1 Secretion
[15] = Homo sapiens, read-out: Anti-Angiogenesis
[16] = DLD-1, read-out: Basal_Viability ATP DLD-1
[17] = SW480, read-out: Basal_Viability ATP SW480
[18] = Mus musculus, C2C12, read-out: Wnt Pathway
[19] = HCT-116, 72 h, read-out: HCT-116 viab. IC50
[20] = Rattus norvegicus, INS-1E, read-out: Ins. sec. EC50
[21] = Homo sapiens, NCI-H716, read-out: GLP1 sec. EC50
[22] = Homo sapiens, read-out: Anti-Angio IC50
[23] = DLD-1, 72 h, read-out: DLD-1 viab. IC50
[24] = SW480, 72 h, read-out: SW480 viab. IC50
[25] = HCT-116, 72 h, read-out: HCT-116 (GSK3β) viab. IC50
[26] = Mus musculus, C2C12, read-out: Wnt pot. EC50

Structure (SMILES) | IC50 (hp70S6K1 (RPS6KB1); kinase assay) [µM] | IC50 (hFLT3; kinase assay) [µM] | IC50 (hGSK3b; kinase assay) [µM] | IC50 (hKDR; kinase assay) [µM] | IC50 (hJAK2; kinase assay) [µM] | IC50 (hp70S6K1 (RPS6KB1)) [µM] | IC50 (hFLT3) [µM] | IC50 (hGSK3b) [µM] | IC50 (hKDR) [µM] | IC50 (hJAK2) [µM] | IC50 [2, 10] [µM] | EC50 (HeLa cells; [11]) [µM] | IC50 (HCT116; [12]) [µM] | EC50 (INS-1E cells; [13]) [µM] | IC50 [1, 15] [µM] | IC50 (DLD-1; [16]) [µM] | IC50 (SW480; [17]) [µM] | also measured
CCCOc1ccc2nc(NC(=O)OC)[nH]c2c1 [Oxibendazole] | > 20 | > 20 | > 20 | > 20 | > 20 |  |  |  |  |  |  |  |  |  |  |  |  | EC50 (HeLa cells; Homo sapiens, HeLa, S2 Table; HeLa; 20 = no response at highest concentration; read-out: CellCycle G2/M): 0.0567 µM; IC50 (HCT116; [4]): 4.75 µM; EC50 (INS-1E cells; [5]): > 10 µM; EC50 (NCI-H716 cells; [6]): > 10 µM; IC50 [1, 7]: 0.328 µM; IC50 (DLD-1; DLD-1, basal, DLD-1, read-out: Basal_Viability ATP DLD-1): > 20 µM; IC50 (SW480; SW480, basal, SW480, read-out: Basal_Viability ATP SW480): > 20 µM; IC50 [2, 8]: > 20 µM; EC50 [3, 9]: 0.0881 µM
CCCCC1C(=O)N(c2ccccc2)N(c2ccc(O)cc2)C1=O (centres unmarked) [Oxyphenbutazone] |  |  |  |  |  | > 20 | > 20 | > 20 | > 20 | > 20 | > 20 |  |  |  |  |  |  | EC50 (HeLa cells; Homo sapiens, HeLa, IC50 / EC50; HeLa; read-out: CellCycle G2/M): > 10 µM; IC50 (HCT116; HCT-116, basal, read-out: Basal_Viability ATP HCT116): 15.7 µM; EC50 (INS-1E cells; Rattus norvegicus; IC50 / EC50; INS-1E; read-out: Insulin Secretion): > 10 µM; EC50 (NCI-H716 cells; Homo sapiens; IC50 / EC50; NCI-H716; read-out: GLP 1 Secretion): > 10 µM; IC50 ([1]; Homo sapiens, IC50 / EC50; endothelial tube area, ADSC/ECFC co-culture; read-out: Anti-Angiogenesis): 3.29 µM; IC50 (DLD-1; DLD-1, basal, read-out: Basal_Viability ATP DLD-1): 5.87 µM; IC50 (SW480; SW480, basal, read-out: Basal_Viability ATP SW480): 3.01 µM; EC50 ([3]; Mus musculus, C2C12, IC50 / EC50; C2C12 beta-catenin translocation; read-out: Wnt Pathway): 4.92 µM
COc1cc([C@@H]2c3cc4c(cc3[C@H](O)[C@H]3COC(=O)[C@H]23)OCO4)cc(OC)c1OC [Podofilox] | > 20 | > 20 | > 20 | > 20 | > 20 |  |  |  |  |  |  |  |  |  |  |  |  | EC50 (HeLa cells; Homo sapiens; S2 Table; HeLa; 20 = no response at highest concentration; read-out: CellCycle G2/M): 0.0077 µM; IC50 (HCT116; [4]): 0.184 µM; EC50 (INS-1E cells; [5]): > 10 µM; EC50 (NCI-H716 cells; [6]): > 10 µM; IC50 [1, 7]: 0.0081 µM; IC50 (DLD-1; basal, DLD-1, read-out: Basal_Viability ATP DLD-1): 0.182 µM; IC50 (SW480; basal, SW480, read-out: Basal_Viability ATP SW480): 0.207 µM; IC50 [2, 8]: 0.0667 µM; EC50 [3, 9]: 0.0091 µM
COc1cc(-c2ccc(=O)[nH]n2)ccc1OC(F)F [Zardaverine] | > 20 | > 20 | > 20 | > 20 | > 20 |  |  |  |  |  | > 20 | > 10 | > 20 | > 10 | 1.22 | > 20 | > 20 | EC50 (NCI-H716 cells; [14]): > 10 µM; EC50 [3, 18]: > 10 µM
CCCCCCCCCCCCCCCCNc1ccc(C(=O)O)cc1 [cetaben sodium, sodium p-(hexadecylamino) benzoate, reference compound] |  |  |  |  |  | > 20 | > 20 | > 20 | > 20 | > 20 | 7.41 | > 10 |  |  | 0.367 | 10.6 | 4.39 | IC50 (HCT116; [19]): > 20 µM; EC50 (INS-1E cells; [20]): > 10 µM; inhibition of RPS6KB1 activity (in words) (hp70S6K1 (RPS6KB1)): does not inhibit; EC50 (NCI-H716 cells; [21]): > 10 µM; inhibition of endothelial tube / cord formation (in words) [1]: uniquely inhibited endothelial cord formation; IC50 [1, 22]: 0.37 µM; inhibition of FLT3 activity (in words) (hFLT3): does not inhibit; IC50 (DLD-1; [23]): 10.6 µM; inhibition of GSK3β activity (in words) (hGSK3b): does not inhibit; IC50 (SW480; [24]): 4.4 µM; inhibition of KDR activity (in words) (hKDR): does not inhibit; inhibition of JAK2 activity (in words) (hJAK2): does not inhibit; IC50 [2, 25]: 7.4 µM; EC50 [3, 26]: > 10 µM
CCC(C)n1ncn(-c2ccc(N3CCN(c4ccc(OCC5COC(Cn6cncn6)(c6ccc(Cl)cc6Cl)O5)cc4)CC3)cc2)c1=O (centres unmarked) [itraconazole] |  |  |  |  |  | > 20 | > 20 | > 20 | > 20 | > 20 | 8.69 | > 10 | 8.85 | > 10 | 1.55 | > 20 | 4.33 | EC50 (NCI-H716 cells; [14]): > 10 µM; EC50 [3, 18]: > 10 µM
CSc1ccc2c(c1)C(N1CCN(C)CC1)Cc1ccccc1S2 (centres unmarked) [metitepine, reference compound] |  |  |  |  |  | > 20 | > 20 | > 20 | > 20 | > 20 | 4.57 | > 10 | 3.77 | 2.94 |  | 4.39 | 1.9 | IC50 (HCT116; [19]): 3.8 µM; EC50 (INS-1E cells; [20]): 2.9 µM; EC50 (NCI-H716 cells; [21]): > 10 µM; IC50 [1, 22]: > 10 µM; IC50 (DLD-1; [23]): 4.4 µM; IC50 (SW480; [24]): 1.9 µM; IC50 [2, 25]: 4.6 µM; EC50 [3, 26]: > 20 µM

From paper PMC4503722, “Novel Phenotypic Outcomes Identified for a Public Collection of Approved Drugs from a Publicly Accessible Panel of Assays” (PLoS ONE, 2015)
